System: Plasmodium berghei
Test: Luciferase/luciferin-expressing antifolate-resistant parasites were used to infect a culture of HepG2 cells that were pre-incubated with compounds. Infected hepatocytes emit light due to the luciferase reaction. Assay results are presented as the percent inhibition of light emission compared to control. […]
Type: functional
Conditions: sporozoite; for IC90: read-out: LUCIFERASE INFECTION ASSAY - IC90

Row | Structure (SMILES) | IC90 [µM] | other results
1 | CCNc1nc(CN2CCCCC2)nc2scc(-c3ccccc3)c12 | 5.12 | IC50 (PBLUC_HILL_SLOPE 4.71, PBLUC_R_SQUARED 0.781, read-out: LUCIFERASE INFECTION ASSAY - IC50): 3.21 µM
2 | CNC(=O)CNc1nc(-c2ccccn2)nc2scc(-c3ccccc3)c12 | 7.43 | IC50 (PBLUC_HILL_SLOPE 4.47, PBLUC_R_SQUARED 0.505, read-out: LUCIFERASE INFECTION ASSAY - IC50): 4.55 µM
3 | OC(c1cc(F)c(F)c(F)c1)c1nnc(Nc2cc(C(F)(F)F)ccc2F)s1 (stereo not given) | 7.5 | IC50 (PBLUC_HILL_SLOPE 4.45, PBLUC_R_SQUARED 0.324, read-out: LUCIFERASE INFECTION ASSAY - IC50): 4.58 µM
4 | Cc1cccc(C)c1NC(=O)N1[C@@H]2CC[C@@H](C2)[C@H]1c1nc2cccc(OCc3ccc(F)cc3)c2[nH]1 | > 10 | IC50 (PBLUC_HILL_SLOPE 4.64, PBLUC_R_SQUARED 0.011, read-out: LUCIFERASE INFECTION ASSAY - IC50): > 10 µM
5 | COc1cccc(CN2CCc3c(c(C(=O)NCCCc4ccccc4)nn3Cc3ccncc3)C2)c1 | 5.47 | IC50 (PBLUC_HILL_SLOPE 4.39, PBLUC_R_SQUARED 0.179, read-out: LUCIFERASE INFECTION ASSAY - IC50): 3.31 µM
6 | CC(C)(C)c1ccc(-c2cnc3cnc(-c4ccc(C(=O)N5CCOCC5)cc4)cn23)cc1 | > 7.49 | IC50 (PBLUC_HILL_SLOPE 4.5, PBLUC_R_SQUARED 0.623, read-out: LUCIFERASE INFECTION ASSAY - IC50): 4.7 µM
7 | COc1ccc(-c2cnc3ccc(N[C@H](CO)C(C)C)nn23)cn1 | 4.4 | IC50 (PBLUC_HILL_SLOPE 4.47, PBLUC_R_SQUARED 0.471, read-out: LUCIFERASE INFECTION ASSAY - IC50): 2.69 µM
8 | Cc1[nH]c2c(F)cc(F)cc2c(=O)c1I | 9.47 | IC50 (PBLUC_HILL_SLOPE 4.58, PBLUC_R_SQUARED 0.0894, read-out: LUCIFERASE INFECTION ASSAY - IC50): 5.86 µM
9 | CCCn1c(NC(=O)c2cccnc2OCC)nc2ccccc21 | > 10 | IC50 (PBLUC_HILL_SLOPE 4.52, PBLUC_R_SQUARED 0.28, read-out: LUCIFERASE INFECTION ASSAY - IC50): 7.59 µM
10 | Cc1ccc(C(C)C)c(OCC(=O)N2CCC(c3nc4ccccc4[nH]3)CC2)c1 | 7.21 | IC50 (PBLUC_HILL_SLOPE 4.62, PBLUC_R_SQUARED 0.766, read-out: LUCIFERASE INFECTION ASSAY - IC50): 4.48 µM
11 | CC(C)c1ccc2c(ccc[n+]2C)c1 | > 10.5 | IC50 (PBLUC_HILL_SLOPE 4.53, PBLUC_R_SQUARED 0.451, read-out: LUCIFERASE INFECTION ASSAY - IC50): 8.36 µM
12 | COc1ccc(COC(=O)Cc2c(C)[nH]c(-c3ccccn3)nc2=O)cc1OC | 8.13 | IC50 (PBLUC_HILL_SLOPE 4.54, PBLUC_R_SQUARED 0.664, read-out: LUCIFERASE INFECTION ASSAY - IC50): 5.01 µM
13 | Cn1cc(-c2cn3c(-c4ccc(C#N)cc4)cnc3cn2)cn1 | > 11 | IC50 (PBLUC_HILL_SLOPE 4.44, PBLUC_R_SQUARED 0.515, read-out: LUCIFERASE INFECTION ASSAY - IC50): 9.55 µM
14 | CCC(Sc1ncnc2sc(C)c(C)c12)C(=O)Nc1cc(C)on1 (stereo not given) | > 10 | IC50 (PBLUC_HILL_SLOPE 4.56, PBLUC_R_SQUARED 0.361, read-out: LUCIFERASE INFECTION ASSAY - IC50): 9.74 µM
15 | N#Cc1ccc(-c2cnc3cnc(/C=C/c4ccccc4)cn23)cc1 | 1.49 | IC50 (PBLUC_HILL_SLOPE 4.44, PBLUC_R_SQUARED 0.805, read-out: LUCIFERASE INFECTION ASSAY - IC50): 0.909 µM
16 | CNc1nc2cnc(Nc3cccc(C(C)C)c3)cc2n1CC1CC1 | 9.92 | IC50 (PBLUC_HILL_SLOPE 4.69, PBLUC_R_SQUARED 0.216, read-out: LUCIFERASE INFECTION ASSAY - IC50): 6.21 µM
17 | O=C(Nc1nc(-c2ccccn2)cs1)c1nn(-c2ccc(F)cc2)c2c1CCCC2 | 8.94 | IC50 (PBLUC_HILL_SLOPE 4.43, PBLUC_R_SQUARED 0.595, read-out: LUCIFERASE INFECTION ASSAY - IC50): 5.45 µM
18 | Cc1nn(-c2cccc(C(F)(F)F)c2)c2c1C=Nc1cc(S(=O)(=O)N3CCOCC3)ccc1O2 | > 10 | IC50 (PBLUC_HILL_SLOPE 4.52, PBLUC_R_SQUARED 0.617, read-out: LUCIFERASE INFECTION ASSAY - IC50): 8.73 µM
19 | CCOc1cc(/C=C/C(=O)c2ccc3c(c2)OCCO3)cc(Br)c1OCC(=O)N(C)C | 9.9 | IC50 (PBLUC_HILL_SLOPE 4.45, PBLUC_R_SQUARED 0.571, read-out: LUCIFERASE INFECTION ASSAY - IC50): 6.04 µM
20 | Cc1[nH]nc2ccnc(-c3cccc(Oc4ccccc4)c3)c12 | 5.52 | IC50 (PBLUC_HILL_SLOPE 4.64, PBLUC_R_SQUARED 0.273, read-out: LUCIFERASE INFECTION ASSAY - IC50): 3.44 µM

Row | Structure (SMILES) | IC90 [µM] | other results
21 | CCCCNC(=O)c1c(NCCC)sc(C(=O)c2ccc(OC)cc2)c1N | > 10 | IC50 (PBLUC_HILL_SLOPE 4.7, PBLUC_R_SQUARED 0.148, read-out: LUCIFERASE INFECTION ASSAY - IC50): 8.99 µM
22 | CC(=O)NCCC(=O)N(c1ccc(Oc2ccccc2)cc1)c1nc2ccccc2s1 | > 10 | IC50 (PBLUC_HILL_SLOPE 4.74, PBLUC_R_SQUARED 0.599, read-out: LUCIFERASE INFECTION ASSAY - IC50): 6.78 µM
23 | Cc1ccc(Nc2nc(CSc3nc4ccccc4c(=O)n3CCCCCCC(C)C)cs2)cc1 | > 10 | IC50 (PBLUC_HILL_SLOPE 4.69, PBLUC_R_SQUARED 0.352, read-out: LUCIFERASE INFECTION ASSAY - IC50): 7.63 µM
24 | COc1ccc(OC)c(CN2CCN(c3nc(-c4cccnc4)nc4sc(C)c(C)c34)CC2)c1 | 6.84 | IC50 (PBLUC_HILL_SLOPE 4.71, PBLUC_R_SQUARED 0.569, read-out: LUCIFERASE INFECTION ASSAY - IC50): 4.29 µM
25 | CCOc1cc(C2NCC(c3ccccc3)c3c2[nH]c2ccccc32)ccc1OCC(C)C (stereo not given) | > 10 | IC50 (PBLUC_HILL_SLOPE 4.52, PBLUC_R_SQUARED 0.531, read-out: LUCIFERASE INFECTION ASSAY - IC50): 6.16 µM
26 | O=C(CSCc1cn(-c2ccccc2)nc1-c1ccccc1)NC1CCCC1 | > 10 | IC50 (PBLUC_HILL_SLOPE 4.68, PBLUC_R_SQUARED 0.205, read-out: LUCIFERASE INFECTION ASSAY - IC50): 6.9 µM
27 | Cc1c(C(=O)OCc2coc(-c3cccs3)n2)sc2nc3n(c(=O)c12)CCC3 | 7.63 | IC50 (PBLUC_HILL_SLOPE 4.64, PBLUC_R_SQUARED 0.43, read-out: LUCIFERASE INFECTION ASSAY - IC50): 4.75 µM
28 | CC/N=c1\scc(-c2cc(C)c(C)cc2C)n1/N=C/c1c[nH]c2ccccc12 | 6.13 | IC50 (PBLUC_HILL_SLOPE 4.53, PBLUC_R_SQUARED 0.847, read-out: LUCIFERASE INFECTION ASSAY - IC50): 3.77 µM
29 | COc1ccc(Nc2nccc3[nH]c(-c4cccc(F)c4)cc23)cc1O | > 10 | IC50 (PBLUC_HILL_SLOPE 4.51, PBLUC_R_SQUARED 0.135, read-out: LUCIFERASE INFECTION ASSAY - IC50): 9.39 µM
30 | Nc1cccc(-c2cn3c(-c4ccc5c(c4)OCO5)cnc3cn2)c1 | 8.12 | IC50 (PBLUC_HILL_SLOPE 4.69, PBLUC_R_SQUARED 0.303, read-out: LUCIFERASE INFECTION ASSAY - IC50): 5.08 µM
31 | CC(C)c1cccc(-c2ccc3nnc(-c4cccc(Cl)c4)n3c2)c1 | > 10 | IC50 (PBLUC_HILL_SLOPE 4.48, PBLUC_R_SQUARED 0.207, read-out: LUCIFERASE INFECTION ASSAY - IC50): 6.48 µM
32 | CC(C)(C)c1ccc(C2SCC(=O)N2c2ccc(Cl)cc2)cc1 (stereo not given) | 6.66 | IC50 (PBLUC_HILL_SLOPE 4.61, PBLUC_R_SQUARED 0.0595, read-out: LUCIFERASE INFECTION ASSAY - IC50): 4.13 µM
33 | CCN1C(=O)N(Cc2cccc(OC)c2)C(=O)C12CCN(Cc1cn(C)c3ccccc13)CC2 | > 7.16 | IC50 (PBLUC_HILL_SLOPE 4.47, PBLUC_R_SQUARED 0.0939, read-out: LUCIFERASE INFECTION ASSAY - IC50): 6.08 µM
34 | COCOc1ccc(-c2cc(-c3ccc(OC)c(OC)c3)cnc2N)cc1 | > 9.01 | IC50 (PBLUC_HILL_SLOPE 4.72, PBLUC_R_SQUARED 0.371, read-out: LUCIFERASE INFECTION ASSAY - IC50): 7.27 µM
35 | CC(=O)Nc1cccc(-c2cn3c(-c4ccc(CO)cc4)cnc3cn2)c1 | > 9.21 | IC50 (PBLUC_HILL_SLOPE 4.55, PBLUC_R_SQUARED 0.47, read-out: LUCIFERASE INFECTION ASSAY - IC50): 6.15 µM
36 | Cc1onc(-c2c(F)cccc2Cl)c1C(=O)ON=C1C2CC3CC(C2)CC1C3 | 4.84 | IC50 (PBLUC_HILL_SLOPE 4.6, PBLUC_R_SQUARED 0.401, read-out: LUCIFERASE INFECTION ASSAY - IC50): 3 µM
37 | CCN1C(=O)N(CCc2ccccc2)C2(CCN(Cc3ccc(C)cc3)CC2)C1=O | > 8.14 | IC50 (PBLUC_HILL_SLOPE 4.45, PBLUC_R_SQUARED 0.239, read-out: LUCIFERASE INFECTION ASSAY - IC50): 6.04 µM
38 | O=[N+]([O-])c1ccc(C2Nc3ccc(F)cc3N2)s1 (stereo not given) | 6.65 | IC50 (PBLUC_HILL_SLOPE 4.41, PBLUC_R_SQUARED 0.496, read-out: LUCIFERASE INFECTION ASSAY - IC50): 4.04 µM
39 | Cc1nc2ccccc2n1CCC(=O)Nc1cccc(Cl)c1 | 8.51 | IC50 (PBLUC_HILL_SLOPE 4.62, PBLUC_R_SQUARED 0.253, read-out: LUCIFERASE INFECTION ASSAY - IC50): 5.29 µM
40 | COc1ccc2nc3cc(Cl)ccc3c(N(C)CCc3ccc(OC)c(OC)c3)c2c1 | 0.33 | IC50 (PBLUC_HILL_SLOPE 4.42, PBLUC_R_SQUARED 0.447, read-out: LUCIFERASE INFECTION ASSAY - IC50): 0.201 µM

From ChEMBL document CHEMBL4483862, “Open-source discovery of chemical leads for next-generation chemoprotective antimalarials” (2018)
